Measurements taken from PMC7542596 (ACS Omega, 2020).

Assays:
[1] = test system: H5N1 influenza virus strain A/Egypt/M7217B/2013; assay: microbe, parasite or virus in culture; assay type: cell-based, influenza A virus (subtype H5N1); conditions: for inhibition at 125 µM / inhibition at 250 µM: MDCK, read-out: inhibition % (plaque reduction assay)
[2] = test system: Madin–Darby canine kidney (MDCK) cells; conditions: dog

SMILES | therapeutic index (qualitative, plaque reduction assay) [1] | viral count (plaque reduction assay) [1] | MTT assay LD50 [2] [µmol/mL] | inhibition at 125 µM [1] [%] | inhibition at 250 µM [1] [%] | safety for healthy cells judged from LD50 values (NCI and GERAN protocol) [2]
COc1ccc(-c2c(C#N)c(N)nc3c(C#N)c(NC(=O)c4ccccc4)nn23)cc1 [10b, N-(5-Amino-3,6-dicyano-7-(4-methoxyphenyl)pyrazolo[1,5-a]pyrimidin-2-yl)benzamide] | higher therapeutic indices | 1.0 × 10^6 b PFU/mL | 140 |  |  | 
N#Cc1c(NC(=O)c2ccccc2)nn2c3c(cnc12)CCC3 [8a, N-(3-Cyano-7,8-dihydro-6H-cyclopenta[e]pyrazolo[1,5-a]pyrimidin-2-yl)benzamide] |  | 4.0 × 10^6 2.5 × 10^6 PFU/mL | 170 | 33.3 | 58.3 | 
CSC(NC(=O)c1ccccc1)=C(C#N)C#N [3a, N-(2,2-Dicyano-1-(methylthio)vinyl)benzamide] |  | 5.0 × 10^6 4.0 × 10^6 PFU/mL | 200 | 16.7 | 33.3 | 
Cc1cc(C)n2nc(NC(=O)c3ccccc3)c(C#N)c2n1 [12a, N-(3-Cyano-5,7-dimethylpyrazolo[1,5-a]pyrimidin-2-yl)benzamide] |  | 4.6 × 10^6 2.0 × 10^6 PFU/mL | 210 | 23.3 | 66.7 | 
Cc1cc(O)n2nc(NC(=O)c3ccccc3)c(C#N)c2n1 [12b, N-(3-Cyano-7-hydroxy-5-methylpyrazolo[1,5-a]pyrimidin-2-yl)benzamide] |  | 5.0 × 10^6 4.0 × 10^6 PFU/mL | 190 | 16.7 | 33.3 | 
N#Cc1nnc2c(C#N)c(NC(=O)c3ccccc3)nn2c1N [6a, N-(4-Amino-3,8-dicyanopyrazolo[5,1-c][1,2,4]triazin-7-yl)benzamide] |  | 4.0 × 10^6 3.0 × 10^6 PFU/mL | 200 | 33.3 | 50 | 
N#Cc1c(NC(=O)c2ccccc2)nn2c3c(cnc12)CCCC3 [8b, N-(3-Cyano-6,7,8,9-tetrahydrocyclohexa[e]pyrazolo[1,5-a]pyrimidin-2-yl)benzamide] |  |  | 210 |  |  | 
CC(=O)OC[C@H]1O[C@@H](SC(NC(=O)c2ccccc2)=C(C#N)C#N)[C@H](OC(C)=O)[C@H](OC(C)=O)[C@H]1OC(C)=O [21a, (2R,3S,4R,5R,6S)-2-(Acetoxymethyl)-6-((1-benzamido-2,2-dicyanovinyl)thio)tetrahydro-2H-pyran-3,4,5-triyl triacetate] |  | 2.2 × 10^6 2.0 × 10^6 PFU/mL | 90 | 63.3 | 66.7 | 
CCSC(NC(=O)c1ccccc1)=C(C#N)C#N [3b, N-(2,2-Dicyano-1-(ethylthio)vinyl)benzamide] | higher therapeutic indices | 2.2 × 10^6 9.0 × 10^5 PFU/mL | 480 | 63.3 | 85 | safe for healthy cells
CCOc1c(C#N)nnc2c(C#N)c(NC(=O)c3ccccc3)nn12 [6b, N-(3,8-Dicyano-4-ethoxypyrazolo[5,1-c][1,2,4]triazin-7-yl)benzamide] |  | 3.0 × 10^6 3.2 × 10^6 PFU/mL | 100 | 50 | 46.7 | 
CC(=O)N[C@H]1[C@H]([C@H](O)[C@H](O)CO)OC(C(=O)O)=C[C@@H]1N=C(N)N [zanamivir, reference compound] |  | 5.0 × 10^4 1.1 × 10^4 PFU/mL |  | 99.2 | 99.8 | 
CCOc1n[nH]c(-c2ccccc2)n1 [compound 19, 3-Ethoxy-5-phenyl-1H-1,2,4-triazole] |  | 2.2 × 10^6 2.0 × 10^6 PFU/mL | 230 | 63.3 | 66.7 | 
CCOC(=O)/C(C#N)=C(\NC(=O)c1ccccc1)SC [compound 14, (E)-Ethyl 3-benzamido-2-cyano-3-(methylthio)acrylate] |  | 5.0 × 10^6 5.0 × 10^6 PFU/mL | 130 | 16.7 | 16.7 | 
N#CC(C#N)=C(NC(=O)c1ccccc1)SCc1ccccc1 [3c, N-(1-(Benzylthio)-2,2-dicyanovinyl)benzamide] |  | 2.8 × 10^6 2.1 × 10^6 PFU/mL | 200 | 53.3 | 65 | 
N#Cc1c(NC(=O)c2ccccc2)n[nH]c1N [compound 4, N-(5-Amino-4-cyano-1H-pyrazol-3-yl)benzamide] | higher therapeutic indices | 2.0 × 10^6 1.4 × 10^6 PFU/mL | 30 | 66.7 | 76.7 | 
N#Cc1c(N)nc2c(C#N)c(NC(=O)c3ccccc3)nn2c1-c1ccc(Cl)cc1 [10c, N-(5-Amino-7-(4-chlorophenyl)-3,6-dicyanopyrazolo[1,5-a]pyrimidin-2-yl)benzamide] |  | 4.0 × 10^6 2.0 × 10^6 PFU/mL | 120 | 33.3 | 66.7 | 
CCOC(=O)/C(C#N)=C(\NC(=O)c1ccccc1)S[C@@H]1O[C@H](COC(C)=O)[C@H](OC(C)=O)[C@@H](OC(C)=O)[C@H]1OC(C)=O [21b, (2R,3S,4R,5R,6S)-2-(Acetoxymethyl)-6-(((E)-1-benzamido-2-cyano-3-ethoxy-3-oxoprop-1-en-1-yl)thio)tetrahydro-2H-pyran-3,4,5-triyl triacetate] |  | 3.5 × 10^6 2.0 × 10^6 PFU/mL | 210 | 41.7 | 66.7 | 
